The results in this text go back to patent US12649723B2, “Carbonohydrazonoyl dicyanide compounds comprising 2 or more aryl or heteroaryl connected via linker and use thereof” (KOREA INSTITUTE OF SCIENCE AND TECHNOLOGY, priority 2020, dated 2026).

In one data set the test system is Tau-BiFC cells. Nature of the data set: Cell viability (cytotoxicity) in tau-BiFC cells, count of stained nuclei. Format: cell-based. The note with it: Forskolin-only group = 100% cell viability; for Cell viability (% @10 μM): compound 10 μM. The gist of the method:
(§1)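 Tau-BiFC cells were exposed for 48 h to compound (1, 3, 10 μM for screening; 0.03–30 μM for dose-response) plus 30 μM Forskolin to induce aggregation. BiFC fluorescence was normalised to Forskolin-only minus untreated controls, with IC50 from nonlinear regression. Viability was Hoechst-stained nuclei counts relative to Forskolin-only wells.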

A further data set addresses T1, tau protein (Homo sapiens, UniProt P10636).
T1 construct: fused on or other part: Split fluorescent-protein halves for BiFC are fused to tau; In the published tau-BiFC line these are Venus VN173 and VC155
Nature of the data set: Tau-BiFC cell model: inhibition of tau protein aggregation. It is filed as cell-based. The settings on record: for remaining activity at 10 µM: compound 10 μM, BiFC fluorescence, read-out: Response (% @10 μM); for IC50: Tau BiFC in cells, with Forskolin 30 μM, 48 hours. The gist of the method:
as §1

[1] abbreviates: 48 h, Forskolin-only group = 100% tau protein-aggregated state.

For orientation: IC50 means the concentration at which inhibition is half-maximal.

T1 sequence (P10636 2-441 isoform P10636-8 limits assumed): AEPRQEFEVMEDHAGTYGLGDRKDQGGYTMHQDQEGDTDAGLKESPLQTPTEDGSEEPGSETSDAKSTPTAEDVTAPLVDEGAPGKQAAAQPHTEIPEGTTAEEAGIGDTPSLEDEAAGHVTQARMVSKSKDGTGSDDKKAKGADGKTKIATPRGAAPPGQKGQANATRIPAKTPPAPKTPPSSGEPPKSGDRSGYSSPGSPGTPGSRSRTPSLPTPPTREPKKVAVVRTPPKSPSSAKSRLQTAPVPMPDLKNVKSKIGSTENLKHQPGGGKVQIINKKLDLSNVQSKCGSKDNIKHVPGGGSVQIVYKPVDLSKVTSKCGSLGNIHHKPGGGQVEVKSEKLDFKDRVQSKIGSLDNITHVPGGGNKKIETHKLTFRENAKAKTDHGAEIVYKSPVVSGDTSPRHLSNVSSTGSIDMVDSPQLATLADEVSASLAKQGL

Regarding `N#CC(C#N)=NNc1ccc(NC(=O)c2ccccc2F)nc1` [Compound 17, (6-(2-fluorobenzamido)pyridin-3-yl)carbonohydrazonoyl dicyanide], the “Cell viability (% @10 μM)” value in the data set with Tau-BiFC cells amounted to 102.7%. In addition, at tau protein (setting [1]), the remaining activity at 10 µM is 0%. This compound returned an IC50 against tau protein of 0.31 µM.

In the case of `N#CC(C#N)=NNc1ccc(OCCc2ccccc2)cc1` [Compound 122, (4-phenethoxyphenyl)carbonohydrazonoyl Dicyanide], the “Cell viability (% @10 μM)” value in the data set with Tau-BiFC cells was determined as 92.9%. Also, the remaining activity at 10 µM on tau protein (setting [1]) stood at 11.7%. This compound returned an IC50 against tau protein of 1.86 µM.

In the case of `N#CC(C#N)=NNc1ccc(OCCc2ccc(C(F)(F)F)cc2)c(C(F)(F)F)c1` [Compound 135, (3-(trifluoromethyl)-4-(4-(trifluoromethyl)phenethoxy)phenyl)carbonohydrazonoyl dicyanide], the “Cell viability (% @10 μM)” value in the data set on Tau-BiFC cells is recorded as 41.7%. The remaining activity at 10 µM at tau protein (setting [1]) was determined as 0%.

As to `N#CC(C#N)=NNc1ccc(NS(=O)(=O)c2ccccc2)nc1` [Compound 58, (6-(phenylsulfonamido)pyridin-3-yl)carbonohydrazonoyl dicyanide], the “Cell viability (% @10 μM)” value in the data set with Tau-BiFC cells was determined as 113.5%. In addition, the remaining activity at 10 µM on tau protein (setting [1]) was 51.4%.

`N#CC(C#N)=NNc1ccc(NC(=O)c2cccc(F)c2)nc1` [Compound 18, (6-(3-fluorobenzamido)pyridin-3-yl)carbonohydrazonoyl dicyanide]: the “Cell viability (% @10 μM)” value with Tau-BiFC cells stood at 113%. The remaining activity at 10 µM on tau protein (setting [1]) came out at 0%. On tau protein, this compound came in with an IC50 of 0.66 µM.

Turning to `Cc1cnc(C(=O)Nc2ccc(NN=C(C#N)C#N)cc2C)cn1` [Compound 8, (3-methyl-4-(5-methylpyrazine-2-carboxamido)phenyl)carbonohydrazonoyl dicyanide], the “Cell viability (% @10 μM)” value in the data set on Tau-BiFC cells is on record as 88%. The remaining activity at 10 µM on tau protein (setting [1]) amounted to 0%. For the same compound, at tau protein, inhibition was half-maximal at 0.04 µM (IC50).

For `N#CC(C#N)=NNc1ccc(OCCc2ccccc2)c(C(F)(F)F)c1` [Compound 101, (4-phenethoxy-3-(trifluoromethyl)phenyl)carbonohydrazonoyl dicyanide], the “Cell viability (% @10 μM)” value in the data set on Tau-BiFC cells worked out at 30.1%. On tau protein (setting [1]), the remaining activity at 10 µM amounted to 0%. The same compound yielded an IC50 on tau protein of 0.95 µM.

As to `N#CC(C#N)=NNc1ccc(NS(=O)(=O)c2cccs2)nc1` [Compound 62, (6-(thiophene-2-sulfonamido)pyridin-3-yl)carbonohydrazonoyl dicyanide], the “Cell viability (% @10 μM)” value with Tau-BiFC cells is on record as 116.5%. On tau protein (setting [1]), the remaining activity at 10 µM worked out at 87.3%.

For `N#CC(C#N)=NNc1ccc(OCc2ccc(C(F)(F)F)cc2)cc1` [Compound 118, (4-(4-(trifluoromethyl)benzyloxy)phenyl)carbonohydrazonoyl dicyanide], the “Cell viability (% @10 μM)” value in the data set with Tau-BiFC cells turned out to be 82.6%. The remaining activity at 10 µM at tau protein (setting [1]) is 25.7%. Further, the IC50 against tau protein was 5.75 µM.

On to `N#CC(C#N)=NNc1ccc(OCc2ccccc2)cc1` [Compound 117, (4-(benzyloxy)phenyl)carbonohydrazonoyl Dicyanide], for which, in the data set on Tau-BiFC cells, the “Cell viability (% @10 μM)” value was found to be 126.0%. In addition, at tau protein (setting [1]), the remaining activity at 10 µM came to 16.6%. Besides, at tau protein, half-maximal inhibition (IC50) required 1.24 µM.

Consider `N#CC(C#N)=NNc1ccc(C(=O)Nc2ccc(Cl)cc2)nc1` [Compound 37, (6-(4-chlorophenylcarbamoyl)pyridin-3-yl)carbonohydrazonoyl dicyanide], for which the “Cell viability (% @10 μM)” value in the data set on Tau-BiFC cells came out at 117.8%. The remaining activity at 10 µM at tau protein (setting [1]) stood at 62.7%.

In the case of `N#CC(C#N)=NNc1ccc(Oc2cccnc2)cc1` [Compound 85, (4-(pyridin-3-yloxy)phenyl)carbonohydrazonoyl dicyanide], the “Cell viability (% @10 μM)” value in the data set with Tau-BiFC cells is listed as 99.1%. For the same compound, the remaining activity at 10 µM on tau protein (setting [1]) is 0%. For the same compound, the IC50 on tau protein turned out to be 1.58 µM.

Regarding `N#CC(C#N)=NNc1ccc(Oc2cccc(F)c2)cc1` [Compound 94, (4-(3-fluorophenoxy)phenyl)carbonohydrazonoyl dicyanide], the “Cell viability (% @10 μM)” value with Tau-BiFC cells worked out at 33.6%. For the same compound, the remaining activity at 10 µM at tau protein (setting [1]) was 0%. Further, half-maximal inhibition against tau protein (IC50) required 1.28 µM.

On to `N#CC(C#N)=NNc1ccc(OCc2ccccc2)nc1` [Compound 95, (6-(benzyloxy)pyridin-3-yl)carbonohydrazonoyl dicyanide], for which the “Cell viability (% @10 μM)” value in the data set with Tau-BiFC cells is listed as 71.9%. Moreover, the remaining activity at 10 µM on tau protein (setting [1]) was 0%.

Regarding `N#CC(C#N)=NNc1ccc(Oc2cccc(C#N)c2)cc1` [Compound 88, (4-(3-cyanophenoxy)phenyl)carbonohydrazonoyl dicyanide], in the data set with Tau-BiFC cells, the “Cell viability (% @10 μM)” value is recorded as 44.4%. For the same compound, the remaining activity at 10 µM on tau protein (setting [1]) came to 0%. At tau protein, this compound came in with an IC50 of 3.06 µM.

For the compound `COc1ccc(NC(=O)c2ccc(NN=C(C#N)C#N)cc2)cc1` [Compound 44, (4-(4-methoxyphenylcarbamoyl)phenyl)carbonohydrazonoyl dicyanide], the “Cell viability (% @10 μM)” value in the data set with Tau-BiFC cells was 70.4%. Further, the remaining activity at 10 µM at tau protein (setting [1]) was 0%.

As to `N#CC(C#N)=NNc1ccc(Oc2ccccc2)c(F)c1` [Compound 71, (3-fluoro-4-phenoxyphenyl)carbonohydrazonoyl dicyanide], the “Cell viability (% @10 μM)” value with Tau-BiFC cells is listed as 46%. On tau protein (setting [1]), the remaining activity at 10 µM turned out to be 0%.

With `Cc1cnc(C(=O)Nc2ncc(NN=C(C#N)C#N)cc2C)cn1` [Compound 12, (5-methyl-6-(5-methylpyrazine-2-carboxamido)pyridin-3-yl)carbonohydrazonoyl dicyanide], the “Cell viability (% @10 μM)” value in the data set on Tau-BiFC cells turned out to be 122.1%. Further, the remaining activity at 10 µM on tau protein (setting [1]) was found to be 17.9%. Further, the midpoint of inhibition against tau protein, the IC50, lay at 0.64 µM.

Regarding `N#CC(C#N)=NNc1ccc(OCc2cc3ccccc3s2)cc1` [Compound 130, (4-(benzo[b]thiophen-2-ylmethoxy)phenyl)carbonohydrazonoyl dicyanide], the “Cell viability (% @10 μM)” value with Tau-BiFC cells was 113%. Besides, at tau protein (setting [1]), the remaining activity at 10 µM came to 0%.

With `Cc1cc(NN=C(C#N)C#N)ccc1OCc1ccccc1` [Compound 141, (4-(benzyloxy)-3-methylphenyl)carbonohydrazonoyl dicyanide], in the data set on Tau-BiFC cells (compounds marked *: measured at 3 μM), the Cell viability is on record as 109%. Moreover, on tau protein (48 h, compounds marked *: measured at 3 μM, Forskolin-only group = 100% tau protein-aggregated state, read-out: Response), the remaining activity at 3 µM is -25%. At tau protein, this compound yielded an IC50 of 0.866 µM.

As to `N#CC(C#N)=NNc1ccc(Oc2nccs2)cc1` [Compound 116, (4-(thiazol-2-yloxy)phenyl)carbonohydrazonoyl dicyanide], the “Cell viability (% @10 μM)” value with Tau-BiFC cells worked out at 124%. Further, the remaining activity at 10 µM on tau protein (setting [1]) came to 0%. Also, at tau protein, half-maximal inhibition (IC50) required 1.4 µM.

`Cc1ccc(COc2ccc(NN=C(C#N)C#N)cc2C(F)(F)F)cc1` [Compound 132, (4-(4-methylbenzyloxy)-3-(trifluoromethyl)phenyl)carbonohydrazonoyl dicyanide]: the “Cell viability (% @10 μM)” value in the data set on Tau-BiFC cells came out at 39.2%. Moreover, the remaining activity at 10 µM on tau protein (setting [1]) came out at 0%.

Consider `N#CC(C#N)=NNc1ccc(Oc2ccccc2)c(C(F)(F)F)c1` [Compound 73, (4-phenoxy-3-(trifluoromethyl)phenyl)carbonohydrazonoyl dicyanide], for which the “Cell viability (% @10 μM)” value with Tau-BiFC cells amounted to 49.6%. For the same compound, the remaining activity at 10 µM at tau protein (setting [1]) came out at 0%.

For the compound `COc1ccc(S(=O)(=O)Nc2ccc(NN=C(C#N)C#N)cn2)cc1` [Compound 59, (6-(4-methoxyphenylsulfonamido)pyridin-3-yl)carbonohydrazonoyl dicyanide], in the data set on Tau-BiFC cells, the “Cell viability (% @10 μM)” value is recorded as 128.2%. Further, the remaining activity at 10 µM at tau protein (setting [1]) worked out at 74.3%.

On to `N#CC(C#N)=NNc1ccc(Oc2ccncc2)c(F)c1` [Compound 80, (3-fluoro-4-(pyridin-4-yloxy)phenyl)carbonohydrazonoyl dicyanide], for which, in the data set with Tau-BiFC cells, the “Cell viability (% @10 μM)” value came to 112.3%. Further, the remaining activity at 10 µM at tau protein (setting [1]) was 68%.

As for `Cc1cnc(C(=O)Nc2ccc(NN=C(C#N)C#N)cc2F)cn1` [Compound 7, (3-fluoro-4-(5-methylpyrazine-2-carboxamido)phenyl)carbonohydrazonoyl dicyanide], in the data set with Tau-BiFC cells, the “Cell viability (% @10 μM)” value was found to be 30.6%. For the same compound, the remaining activity at 10 µM on tau protein (setting [1]) was 0%.

As for `Cc1cnc(NC(=O)c2ccc(NN=C(C#N)C#N)c(F)c2)cn1` [Compound 56, (2-fluoro-4-(5-methylpyrazin-2-ylcarbamoyl)phenyl)carbonohydrazonoyl dicyanide], in the data set with Tau-BiFC cells, the “Cell viability (% @10 μM)” value turned out to be 129.9%. Besides, at tau protein (setting [1]), the remaining activity at 10 µM amounted to 0%. The same compound came in with an IC50 against tau protein of 1.85 µM.

Take `N#CC(C#N)=NNc1ccc(OCCc2ccc(C(F)(F)F)cc2)cc1` [Compound 121, (4-(4-(trifluoromethyl)phenethoxy)phenyl)carbonohydrazonoyl dicyanide]: the “Cell viability (% @10 μM)” value in the data set on Tau-BiFC cells is 72.7%. Besides, on tau protein (setting [1]), the remaining activity at 10 µM was 3.4%. This compound displayed an IC50 at tau protein of 4.61 µM.

As to `Cc1cnc(C(=O)Nc2ccc(NN=C(C#N)C#N)cc2Cl)cn1` [Compound 11, (3-chloro-4-(5-methylpyrazine-2-carboxamido)phenyl)carbonohydrazonoyl dicyanide], the “Cell viability (% @10 μM)” value in the data set on Tau-BiFC cells is 82.5%. Further, the remaining activity at 10 µM on tau protein (setting [1]) is 0%. Also, inhibition against tau protein was half-maximal at 0.11 µM (IC50).

As to `Cc1cncc(NC(=O)c2ccc(NN=C(C#N)C#N)cc2C)n1` [Compound 54, (3-methyl-4-(6-methylpyrazin-2-ylcarbamoyl)phenyl)carbonohydrazonoyl dicyanide], in the data set with Tau-BiFC cells, the “Cell viability (% @10 μM)” value stood at 116%. At tau protein (setting [1]), the remaining activity at 10 µM was determined as 8.3%.

Take `Cc1cccc(C(=O)Nc2ccc(NN=C(C#N)C#N)cn2)c1` [Compound 24, (6-(3-methylbenzamido)pyridin-3-yl)carbonohydrazonoyl dicyanide]: the “Cell viability (% @10 μM)” value in the data set on Tau-BiFC cells was found to be 103.9%. In addition, the remaining activity at 10 µM on tau protein (setting [1]) was found to be 0%. Further, on tau protein, the IC50 was under 0.3 µM.
